Laboratory results taken from PubChem BioAssay (NCI).
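Dose response: 5 concentrations. Exposure: 48 h. Format: 96-well plates. Endpoint: linear interpolation; highest concentration if not reached. GI50 marks 50% less growth. At the TGI there is no net growth.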

Assays:
Assay in all cases: NCI tumour cell line growth inhibition, 48 h
[1] = test system: A549 NSCLC
[2] = test system: U251 CNS
[3] = test system: NCI-H522 lung
[4] = test system: HCT-15 colon
[5] = test system: SK-OV-3 ovarian
[6] = test system: MDA-MB-435
[7] = test system: A498 renal
[8] = test system: NCI/ADR-RES ovarian
[9] = test system: HCC-2998 colon
[10] = test system: NCI-H226 lung
[11] = test system: OVCAR-8 ovarian
[12] = test system: EKVX NSCLC
[13] = test system: SF-539 CNS
[14] = test system: SW-620 colon
[15] = test system: HL-60(TB) leukemia
[16] = test system: UACC-62 melanoma
[17] = test system: 786-0 renal
[18] = test system: RXF 393 renal
[19] = test system: SK-MEL-28 melanoma
[20] = test system: CAKI-1 renal
[21] = test system: HS 578T breast
[22] = test system: SR leukemia
[23] = test system: MALME-3M melanoma
[24] = test system: HCT-116 colon
[25] = test system: RPMI-8226 leukemia
[26] = test system: OVCAR-4 ovarian
[27] = test system: SF-268 CNS
[28] = test system: OVCAR-3 ovarian
[29] = test system: OVCAR-5 ovarian
[30] = test system: NCI-H23 lung
[31] = test system: KM12 colon
[32] = test system: MCF7 breast
[33] = test system: T-47D breast
[34] = test system: TK-10 renal
[35] = test system: DU-145 prostate
[36] = test system: M14 melanoma
[37] = test system: HOP-92 NSCLC
[38] = test system: IGROV1 ovarian
[39] = test system: MOLT-4 leukemia
[40] = test system: SN12C renal
[41] = test system: UACC-257 melanoma
[42] = test system: COLO 205 colon
[43] = test system: HT29 colon
[44] = test system: CCRF-CEM leukemia
[45] = test system: PC-3 prostate
[46] = test system: K-562 leukemia
[47] = test system: LOX IMVI melanoma
[48] = test system: ACHN renal
[49] = test system: NCI-H460 lung
[50] = test system: SNB-19 CNS
[51] = test system: BT-549 breast
[52] = test system: MDA-MB-468 breast
[53] = test system: SF-295 CNS
[54] = test system: HOP-62 NSCLC
[55] = test system: SK-MEL-5 melanoma

N#CC1=C(c2ccco2)Nc2c(c(-c3ccccc3)nn2-c2ccccc2)C12C(=O)Nc1ccc(Cl)cc12 (stereo not given)
GI50 [1]: 11.6 µM | TGI [1]: 25.1 µM | GI50 [2]: 13.3 µM | TGI [2]: 29.2 µM | GI50 [3]: 14.5 µM | TGI [3]: 38.8 µM | GI50 [4]: 19.6 µM | TGI [4]: > 100 µM | GI50 [5]: 15.8 µM | TGI [5]: 33.9 µM | GI50 [6]: 34.8 µM | TGI [6]: > 100 µM | GI50 [7]: 14.5 µM | TGI [7]: 30.9 µM | GI50 [8]: 14.8 µM | TGI [8]: 30 µM | GI50 [9]: 19.2 µM | TGI [9]: 58.9 µM | GI50 [10]: 17.5 µM | TGI [10]: 50.2 µM | GI50 [11]: 15.7 µM | TGI [11]: 30.7 µM | GI50 [12]: 16.5 µM | TGI [12]: 66 µM | GI50 [13]: 17.9 µM | TGI [13]: 40.6 µM | GI50 [14]: 30.3 µM | TGI [14]: > 100 µM | GI50 [15]: 15 µM | TGI [15]: > 100 µM | GI50 [16]: 11.4 µM | TGI [16]: 28.2 µM | GI50 [17]: 16.2 µM | TGI [17]: 56 µM | GI50 [18]: 13.2 µM | TGI [18]: 29.9 µM | GI50 [19]: 15.5 µM | TGI [19]: 33 µM | GI50 [20]: 29.5 µM | TGI [20]: > 100 µM | GI50 [21]: 12.6 µM | TGI [21]: 40.9 µM | GI50 [22]: 23.3 µM | TGI [22]: > 100 µM | GI50 [23]: 14.7 µM | TGI [23]: 29.8 µM | GI50 [24]: 13.1 µM | TGI [24]: 26 µM | GI50 [25]: 18.7 µM | TGI [25]: > 100 µM | GI50 [26]: 15.4 µM | TGI [26]: 33.3 µM | GI50 [27]: 17.8 µM | TGI [27]: 90.1 µM | GI50 [28]: 20.4 µM | TGI [28]: 61 µM | GI50 [29]: 23.8 µM | TGI [29]: > 100 µM | GI50 [30]: 15.5 µM | TGI [30]: 32.4 µM | GI50 [31]: 49.5 µM | TGI [31]: > 100 µM | GI50 [32]: 15.7 µM | TGI [32]: 49.7 µM | GI50 [33]: 19.5 µM | TGI [33]: > 100 µM | GI50 [34]: 15 µM | TGI [34]: 30.6 µM | GI50 [35]: 19.4 µM | TGI [35]: 43.9 µM | GI50 [36]: 15 µM | TGI [36]: 32.7 µM | GI50 [37]: 12.8 µM | TGI [37]: 28.5 µM | GI50 [38]: 16.3 µM | TGI [38]: 38.4 µM | GI50 [39]: 6.05 µM | TGI [39]: 91.2 µM | GI50 [40]: 17 µM | TGI [40]: 36.7 µM | GI50 [41]: 16.6 µM | TGI [41]: 41.4 µM | GI50 [42]: 14.7 µM | TGI [42]: 29.7 µM | GI50 [43]: 14.6 µM | TGI [43]: 30.2 µM | GI50 [44]: 49.7 µM | TGI [44]: > 100 µM | GI50 [45]: 12 µM | TGI [45]: 28 µM | GI50 [46]: 16.6 µM | TGI [46]: > 100 µM | GI50 [47]: 19.2 µM | TGI [47]: 47.1 µM | GI50 [48]: 18.1 µM | TGI [48]: 61 µM | GI50 [49]: 14.1 µM | TGI [49]: 31.8 µM | GI50 [50]: 17.4 µM | TGI [50]: 46 µM | GI50 [51]: 12.2 µM | TGI [51]: 28.2 µM | GI50 [52]: 19 µM | TGI [52]: 64.7 µM | GI50 [53]: 16.9 µM | TGI [53]: 56.3 µM | GI50 [54]: 14.8 µM | TGI [54]: 28.9 µM | GI50 [55]: 18 µM | TGI [55]: 41.8 µM
